Test results taken from patent publication US20230322717A1, “SOLID FORM OF PYRAZINE SUBSTITUTED NICOTINAMIDE, AND PREPARATION AND USE THEREOF” (Shenzhen TargetRx, Inc., priority 2020, published 2023).
In brackets after ≈: the same amount, converted by molar mass. Blank lines part the entries; values can stand above or below the compound they belong to.

What was measured:
Type in all cases: physicochemical
[1] = Solubility study in SGF, FaSSIF and FeSSIF (HPLC of filtrate, XRPD of solid); conditions: for solubility compared with the other form / dependence of solubility on pH: 37° C.; for dependence of solubility on pH: FaSSIF, FeSSIF
Method: The solubilities of the crystal form I of compound A and the crystal form I of compound A p-toluenesulfonate in SGF (simulated gastric fluid), FaSSIF (fasted state simulated intestinal fluid) and FeSSIF (fed state simulated intestinal fluid) were studied.
The solubilities of samples in SGF, FaSSIF and FeSSIF at 37° C. for 24 hours were determined. 40 mg of the sample was placed in a sample bottle, and 1.5 mL of solvent was added. The mixture was mixed well, and shaken on a shaker at 200 rpm for 24 hours. The suspension was filtered at 0.5, 2 and 24 hours. The filtrate was analyzed by HPLC, and the solid was tested by XRPD.

[2] = Dynamic moisture adsorption and desorption analysis (DVS); conditions: for crystal form after DVS test (XRPD): before and after DVS test; for hygroscopicity (DVS): moisture range 0% to 90%
Method: The instrument model used for dynamic moisture adsorption and desorption analysis was IGA Sorp (Hidentity Isochema). The samples were measured in a gradient mode with a moisture range of 0% to 90%, wherein the humidity increment of each gradient was 10%.

[3] = Stability study of the crystal form I of compound A and the crystal form I of compound A p-toluenesulfonate (HPLC, XRPD); conditions: 7 days at 40° C./75% RH and 60° C.
Method: A certain amount of samples of the crystal form I of compound A and the crystal form I of compound A p-toluenesulfonate (Batch No.: PTSA-A1) were placed in a stability test chamber, and kept at 40° C./75%RH and 60° C. for 7 days, respectively. The samples were tested by HPLC and XRPD at various time points.

[4] = Dissolution study of compound A tablets (solubilizer and glidant study)
[5] = Heating of the crystal form by DSC (solvent removal); conditions: heated to 150° C. by DSC
Method: The instrument model for differential scanning calorimetry analysis was DSC Q200 or Discovery DSC 250 (TA, USA). Samples were accurately weighed and placed in a punctured sample pot for DSC, and the exact mass of the sample was recorded. The samples were heated to the final temperature (e.g. 300° C. or 350° C.) at a ramp rate of 10° C./min.
The collected crystal form I of compound A was subjected to DSC analysis by General method 4. […] The crystal form I of compound A was heated to 150° C. by DSC and then the solvent was removed.

[6] = Cooling crystallization: solubility of the crystal form I of compound A in heated solvents; conditions: organic solvent or mixture, thermodynamic from solid
Method: About 30 mg of the crystal form I of compound A was added to different solvents and heated until dissolved. The resulting solution was then slowly cooled to room temperature. PLM and XRPD tests were performed on the resulting solid crystal forms.

[7] = Solubility study of the starting material (the crystal form I of compound A) in different solvents
Method: About 2 mg of the starting material was weighed and added into a sample bottle, and different solvents were added respectively, until the starting material was dissolved.

[8] = Grinding research of crystal forms (XRPD before and after grinding); conditions: ground in a mortar at room temperature
Text: The solid XRPDs before and after grinding were compared.

[9] = Stability study of the crystal form VI of compound A (high temperature, high humidity, light)

crystal form of the undissolved solid (XRPD) ([1]; SGF, FaSSIF and FeSSIF for 2 hours): changed | dependence of solubility on pH ([1]; SGF): affected by pH value | crystal form after heating and solvent removal [5]: changed into the crystal form VI | water absorption ([2]; 0-60%RH): about 0.2% | water absorption ([2]; 0-80%RH): about 0.7% | water absorption ([2]; 0-90%RH): about 1.3% | hygroscopicity (DVS) [2]: slightly hygroscopic | Solubility ([6]; ACN, became clear at 50° C.): 298 mg/mL (≈ 642 mM) | Solubility ([6]; Acetone, became clear at 50° C.): 150 mg/mL (≈ 324 mM) | Solubility ([6]; Isobutanol, became clear at 70° C.): 10.1 mg/mL (≈ 21.8 mM) | Solubility ([6]; MeOH, became clear at 50° C.): 34.1 mg/mL (≈ 73.5 mM) | crystal form stability (XRPD) [3]: remained unchanged | solubility in solvents (in words) ([7]; in tetrahydrofuran, acetone, 2-butanone, acetonitrile and ethyl acetate): good solubility
Structure (SMILES): O=C(Nc1ccc(OC(F)(F)Cl)cc1)c1cnc(N2CC[C@@H](F)C2)c(-c2cnccn2)c1 [crystal form I of compound A, (R)-N-(4-(chlorodifluoromethoxy)phenyl)-6-(3-fluoropyrrolidin-1-yl)-5-(pyrazin-2-yl)nicotinamide]
solubility compared with the other form ([1]; FeSSIF vehicle, 0.5 and 2 hours): higher solubility than that of the p-toluenesulfonate

solid form / crystallinity after grinding (XRPD) ([8]; listed as crystal form III): transformed into amorphous forms
Structure (SMILES): O=C(Nc1ccc(OC(F)(F)Cl)cc1)c1cnc(N2CC[C@@H](F)C2)c(-c2cnccn2)c1 [crystal form III of compound A, (R)-N-(4-(chlorodifluoromethoxy)phenyl)-6-(3-fluoropyrrolidin-1-yl)-5-(pyrazin-2-yl)nicotinamide]

The next lines start with the compound.

Structure (SMILES): Cc1ccc(S(=O)(=O)O)cc1.O=C(Nc1ccc(OC(F)(F)Cl)cc1)c1cnc(N2CC[C@@H](F)C2)c(-c2cnccn2)c1 [(R)-N-(4-(chlorodifluoromethoxy)phenyl)-6-(3-fluoropyrrolidin-1-yl)-5-(pyrazin-2-yl)nicotinamide p-toluenesulfonate]
crystal form of the undissolved solid (XRPD) ([1]; FaSSIF and FeSSIF for 0.5 hours): changed | solubility compared with the other form ([1]; FaSSIF and FeSSIF vehicles, 24 hours): higher solubility than that of the free base | crystal form of the undissolved solid (XRPD) ([1]; SGF for 24 hours): changed | dependence of solubility on pH ([1]; SGF): affected by pH value | solubility in a solution with a higher pH value ([1]; after 2 hours): higher solubility | water absorption ([2]; 0-80%RH): about 0.39% | water absorption ([2]; 0-90%RH): about 0.61% | crystal form after DVS test (XRPD) [2]: not changed | hygroscopicity (DVS) [2]: slightly hygroscopic | crystal form stability (XRPD) [3]: remained unchanged

Structure (SMILES): O=C(Nc1ccc(OC(F)(F)Cl)cc1)c1cnc(N2CC[C@@H](F)C2)c(-c2cnccn2)c1 [compound A, (R)-N-(4-(chlorodifluoromethoxy)phenyl)-6-(3-fluoropyrrolidin-1-yl)-5-(pyrazin-2-yl)nicotinamide]
dissolution of compound A in the formulation ([4]; colloidal silica 200 (glidant) added): improved | dissolution of compound A in the formulation ([4]; increasing amount of sodium lauryl sulfate (solubilizer)): decreased

Structure (SMILES): O=C(Nc1ccc(OC(F)(F)Cl)cc1)c1cnc(N2CC[C@@H](F)C2)c(-c2cnccn2)c1 [crystal form VI of compound A, (R)-N-(4-(chlorodifluoromethoxy)phenyl)-6-(3-fluoropyrrolidin-1-yl)-5-(pyrazin-2-yl)nicotinamide]
solid form / crystallinity after grinding (XRPD) [8]: slightly decreased | water absorption ([2]; 0-80%RH): 1.1852% | water absorption ([2]; 0-90%RH): 1.7452% | water absorption ([2]; 10%RH): 0.1389% | crystal form after DVS test (XRPD) [2]: not changed | stability (appearance, crystal form and related substances) ([9]; 10 days under the condition of light): stable | stability (appearance, crystal form and related substances) ([9]; 30 days, 60° C., 25° C./92.5%RH, 40° C./75%RH, and light (visible 4500 Lux, near-UV 85µw/cm^2)): stable | crystal form after stability test (XRPD) ([9]; high temperature, high humidity, high temperature and high humidity, light): not changed

Structure (SMILES): O=C(Nc1ccc(OC(F)(F)Cl)cc1)c1cnc(N2CC[C@@H](F)C2)c(-c2cnccn2)c1 [crystal form VII of compound A, (R)-N-(4-(chlorodifluoromethoxy)phenyl)-6-(3-fluoropyrrolidin-1-yl)-5-(pyrazin-2-yl)nicotinamide]
solid form / crystallinity after grinding (XRPD) ([8]; listed as crystal form VII): transformed into amorphous forms

Structure (SMILES): O=C(Nc1ccc(OC(F)(F)Cl)cc1)c1cnc(N2CC[C@@H](F)C2)c(-c2cnccn2)c1 [the crystal form I of compound A]
Solubility ([7]; solvent: 2-Butanone): ~73.67 mg/mL (≈ 159 mM) | Solubility ([7]; solvent: Acetone): ~77 mg/mL (≈ 166 mM) | Solubility ([7]; solvent: Acetonitrile): ~53.25 mg/mL (≈ 115 mM) | Solubility ([7]; solvent: Ethanol): ~1.31 mg/mL (≈ 2.82 mM) | Solubility ([7]; solvent: Ethyl Acetate): ~49.25 mg/mL (≈ 106 mM) | Solubility ([7]; solvent: Isobutanol): ~0.73 mg/mL (≈ 1.57 mM) | Solubility ([7]; solvent: Isopropyl Acetate): ~22.1 mg/mL (≈ 47.6 mM) | Solubility ([7]; solvent: Isopropyl Alcohol): ~0.92 mg/mL (≈ 1.98 mM) | Solubility ([7]; solvent: Methanol): ~11.83 mg/mL (≈ 25.5 mM) | Solubility ([7]; solvent: Methyl Tert-Butyl Ether): ~2.8 mg/mL (≈ 6.04 mM) | Solubility ([7]; solvent: Tetrahydrofuran): ~121 mg/mL (≈ 261 mM) | Solubility ([7]; solvent: Toluene): ~1.23 mg/mL (≈ 2.65 mM) | Solubility (mg/mL) ([7]; solvent: Water): <<0.55 mg/mL
